Experiment [1] concerns cytochrome c oxidase subunit 2 (COX2). Put plainly: Immunoblot of mitochondrial-encoded COX2 in HCT116 and RKO cells. Type of experiment: cell-based, human. Particulars: 4 days. On the procedure: Whole cell lysates were prepared using RIPA buffer (Cell Signaling Technology) supplemented with EDTA-free protease inhibitor cocktail (Roche Applied Science), cleared by centrifugation at 16,000× g for 10 min, normalized based on protein concentration (Bio-Rad protein assay), boiled in NuPAGE LDS sample buffer (Invitrogen) supplemented with 2% ß-mercaptoethanol, and separated on NuPAGE 4–12% Bis-Tris gels using MOPS running buffer (Invitrogen). Proteins were transferred to nitrocellulose membranes and probed with the following primary antibodies: rabbit polyclonal antibody against mEF-G1 (Sigma, HPA034765), rabbit monoclonal antibody against GAPDH (Cell Signaling Technology, 14C10), mouse monoclonal antibodies against COX2 (Invitrogen, A6404) or SDHA (MitoSciences, MS204). Immobilized primary antibodies were visualized using HRP-conjugated anti-rabbit or anti-mouse IgG (Millipore, AP307P and AP308P) and enhanced chemiluminescence (Pierce).
(In western blotting, separated proteins are transferred to a membrane and probed.)

A further experiment concerns yeast (BY4741, BYΔ8). Kind of experiment: Yeast susceptibility determination, wild-type and BYΔ8. Type of experiment: cell-based, S. cerevisiae. Particulars: for Activity against yeast (in words): rich medium with glucose. On the procedure: Yeast strains used in this study are BY4741 [32] and strain BYΔ8, derived from BY4741 but deleted for eight genes involved in drug resistance (efflux pumps: snq2, pdr5, yor1; transcription factors: pdr1, pdr2, pdr3, yap1, yrm1). […] Starting OD600 was 0.1, total volume per well 120 µl. Plates were incubated at 30°C with 770 RPM orbital shaking.

The subject of the next experiment is P. aeruginosa. Put plainly: Resistant mutant selection, P. aeruginosa. Format: cell-based. The following applies: P. aeruginosa K767; solid medium containing 128 µg/ml argyrin B. On the procedure: Resistance frequencies were calculated as the number of CFU (mutants) on drug containing plates divided by the number of CFU plated. Whole genome sequencing was done as described previously. The fusA1 gene from P. aeruginosa was generated for sequencing in two parts, using primer pairs PAEFF1/PAEFR1: […]/[…] and EFF2/EFR1: […]/[…]. The fusA1 gene from B. multivorans was generated as a single band using BCEFGF1/BCEFGR1: […]/[…]. Nucleotide sequencing of the products was done by Agencourt (Beverly MA).

Another experiment addresses T1, P. aeruginosa EF-G1 (Pseudomonas aeruginosa, UniProt Q9HWD2).
T1 construct: P. aeroginosa fusA1 encoding full-length EF-G was PCR amplified from pET28a-PaEFG-Nhis; made in house; host or cells: E. coli BL21 (DE3)
Kind of experiment: Surface plasmon resonance (SPR). Format: binding. From the text:
For wild type P. aeruginosa EF-G1 expression, the fusA gene was amplified from genomic DNA of P. aeruginosa PAO1 K767 using the primer pair EFG-F/EFG-R: […]/[…]. The product was digested with NdeI and HindIII and ligated into similarly digested pET28a to generate pET28a-PaEFG-Nhis. This plasmid was then used for site directed mutagenesis to introduce the nucleotide change encoding EF-G1S459F (pET28a-PaEFGS459F-Nhis). The plasmids were then transformed into an E. coli strain BL21 (DE3) for expression. A single colony was used to inoculate 10 ml LB broth containing 50 µg/ml kanamycin which was incubated at 37°C overnight, with shaking at 250 rpm. The overnight culture was then diluted 100-fold into 1 liter fresh LB broth containing 50 µg/ml kanamycin. After growing at 37°C with vigorous shaking for about 2.5 hours, expression of P. aeruginosa EF-G1 or EF-G1S459F was then induced by adding 0.1 mM IPTG, with further culture incubation at 18°C for 24 hours. Cells were then pelleted by centrifugation at 5,000 rpm with Sorvall SLC-6000 rotor and stored at −20°C. Cell pellets were then resuspended in 20 ml of BugBuster solution (Novagen) and incubated at room temperature for 20 minutes. […] The protein in the fractions was monitored by UV absorbance at 280 nm. […] Protein concentration was determined by Nano-drop spectrophotometer. […]

“Also recorded” adds a separate entry of the source. *1 amine or outer side, *2 acyl side, *3 side chain or, on linkers, in order; H or OH if unused. Where a SMILES comes first, the peptide text is derived from it. [ ]: non-standard residue; d: D form. dAla(ψthiazole) = C[C@@H](N[*:1])c1nc(C(=O)[*:2])cs1; Trp(4-OMe) = COc1cccc2[nH]cc(C[C@H](N)C(=O)O)c12; dAbu = CC[C@@H](N)C(=O)O; Dha = C=C(N)C(=O)O; Sar = CNCC(=O)O

T1 sequence (Q9HWD2 whole entry): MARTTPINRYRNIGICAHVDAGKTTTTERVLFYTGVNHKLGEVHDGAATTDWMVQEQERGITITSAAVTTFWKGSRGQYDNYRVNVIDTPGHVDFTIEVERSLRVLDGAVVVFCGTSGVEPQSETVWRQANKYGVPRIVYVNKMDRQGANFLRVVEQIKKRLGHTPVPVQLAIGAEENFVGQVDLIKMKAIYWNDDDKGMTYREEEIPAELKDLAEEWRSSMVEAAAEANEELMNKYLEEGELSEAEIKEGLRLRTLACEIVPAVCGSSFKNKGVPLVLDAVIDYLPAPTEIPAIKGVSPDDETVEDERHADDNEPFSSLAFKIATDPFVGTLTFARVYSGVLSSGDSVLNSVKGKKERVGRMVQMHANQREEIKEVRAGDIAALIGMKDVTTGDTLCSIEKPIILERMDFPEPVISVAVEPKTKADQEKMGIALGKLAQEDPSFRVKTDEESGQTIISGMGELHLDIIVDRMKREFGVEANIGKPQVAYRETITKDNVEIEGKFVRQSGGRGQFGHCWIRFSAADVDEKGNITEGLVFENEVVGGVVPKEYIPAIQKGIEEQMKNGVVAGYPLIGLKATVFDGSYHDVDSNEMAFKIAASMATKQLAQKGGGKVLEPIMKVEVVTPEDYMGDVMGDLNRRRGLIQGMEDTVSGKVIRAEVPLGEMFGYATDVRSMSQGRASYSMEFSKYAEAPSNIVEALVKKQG

Consider `C=C1NC(=O)CN(C)C(=O)CNC(=O)[C@H](Cc2c[nH]c3cccc(OC)c23)NC(=O)[C@H](Cc2c[nH]c3ccccc23)NC(=O)c2csc(n2)[C@@H](C)NC(=O)[C@@H](CC)NC1=O` [argyrin B] (cyclo([dAbu][dAla(ψthiazole)]W[Trp(4-OMe)]G[Sar][Dha])), for which the “COX2 protein level (in words)” value was “depleted” in experiment [1] (HCT116, 1 µM argyrin B) and “depleted” in experiment [1] (RKO, 1 µM argyrin B). The “Activity against yeast (in words)” value with yeast (BY4741, BYΔ8) (BYΔ8 (strain CMB970, eight genes involved in efflux deleted)) was “inactive”; in the experiment with yeast (BY4741, BYΔ8) (wild-type yeast (BY4741)), “inactive”. Also, the “Inhibitory activity on glucose-grown yeast (in words)” value in the experiment with yeast (BY4741, BYΔ8) (glucose-grown yeast) is reported as “lack of inhibitory activity”. Besides, in the experiment with P. aeruginosa, the “frequency of mutants with decreased susceptibility” value is given as “circa 5×10^−8”. For the same compound, the “Binding to purified P. aeruginosa EF-G (in words)” value at P. aeruginosa EF-G1 is given as “bound purified P. aeruginosa EF-G tightly; also recorded: Very tight binding”.
